The numbers were not newly measured in patent publication US20130224294A1, “DRY PROCESSING OF ATAZANAVIR” (priority 2010, published 2013), which cites them from elsewhere.

Broadly, the solubility is the dissolved amount per volume that the medium holds.

Structures are written as SMILES. Some results are limits rather than exact numbers.

The conditions of data set [1]: at 24±3° C.; base formed by dissociation of the salt in the presence of water.
The conditions of data set [2]: free base.

`COC(=O)N[C@H](C(=O)N[C@@H](Cc1ccccc1)[C@@H](O)CN(Cc1ccc(-c2ccccn2)cc1)NC(=O)[C@@H](NC(=O)OC)C(C)(C)C)C(C)(C)C` [Atazanavir]: the “BCS class (high permeability/low solubility)” value is “BCS II”. The solubility in data set [1] is below 1 µg/mL. In addition, the bioavailability entry in data set [2] is on record as “does not have sufficient bioavailability”.
